According to patent US20240261243A1, “NITRIC OXIDE DONORS, COMPOSITIONS, AND METHODS OF USE” (priority 2020, published 2024):
In brackets after ≈: the same amount, converted by molar mass.

Assays:
[1] = NO storage and release measurement (chemiluminescence nitric oxide analyzer); type: physicochemical
Description: N-diazeniumdiolates NO scaffolds are pH-triggered NO-release donors. Reacting with proton in the physiological condition (e.g., 37° C., pH 7.4), 1 mole of N-diazeniumdiolate regenerates 1 mole of the parent secondary amine compounds and two moles of NO radicals. The real-time detection of NO was performed by using a chemiluminescence-based nitric oxide analyzer (NOA). The total NO storage and dissociation kinetics of water-soluble NO Donors were measured in physiological condition (pH 7.40, 37° C.). The resulting NO-release parameters (e.g., total NO storage, half-life of NO release, maximum flux, and conversion efficiency) were evaluated for suitability as a pharmaceutical product.
Transfer the solution into the high-pressure vessel and purge the headspace with nitrogen. Mix the solution and set nitric oxide pressure to 25 bar (temp 20° C.). Allow the reaction to run for minimum of 3 days. Stop the reaction by venting the NO. Precipitate the reaction product in acetone (10:1 acetone:reaction mixture). Filter the precipitate and vacuum dry.
We sought to determine whether an NO donor and gallium nitrate have antimicrobial synergy against a lab strain of P. aeruginosa (PAK). The Checkerboard assay (described herein) was used with a hepta-substituted cyclodextrin-based NO donor (hereinafter referred to as BIOC76) having approximately ˜4.7 μmol NO/mg dry powder.

P. aeruginosa (PAK) = assay: Time-kill assay in CAMHB at 37° C.; type: cell-based, Pseudomonas aeruginosa; details: 4 mg/ml BIOC76 alone, broth
Description: In this study, we established the viability of P. aeruginosa in a broth at 37° C. when exposed to BIOC76 alone compared to BIOC76+gallium citrate. […] To conduct this experiment, we suspended P. aeruginosa (PAK) in CAMHB to a final concentration of 10^6 CFU/ml. Bacteria were exposed to BIOC76, GaCi, or BIOC76+GaCi and incubated at 37° C.

P. aeruginosa biofilms = assay: Biofilm eradication (MBEC) on peg lid
P. aeruginosa strains = assay: MIC/MBC of BIOC76 and gallium citrate alone against 21 strains; type: cell-based, Pseudomonas aeruginosa; details: for MBC Rep 1 / MIC Rep 1: alone
From the text: Determined the MIC of each test article individually against the strains being tested using the CLSI MIC/MBC method.
In this study, we established the MIC/MiBC's of BIOC76 and gallium citrate alone against each of 21 P. aeruginosa strains. […] The activity of both compounds is also strain-dependent. The results are as follows (the species for each strain is Pseudomonas aeruginosa: […]

Description for P. aeruginosa strain PAK: Test articles are added to a 96-well plate so that when a 2× bacterial culture (prepared to 10^6 CFU/ml) is added, the final concentration in all wells was 1×.
All test articles are prepared at 4×→diluted 1:1 when other TA is added (2×), and diluted 1:1 again to 1× when bacteria are added
Plates were incubated at 37° C. for 18-24 h.
Experimental Design: The MIC of BIOC76 and Gallium nitrate individually, then set up a checkerboard assay testing 49 combinations of BIOC76 and Gallium nitrate concentrations against 10^6 CFU/ml P. aeruginosa strain PAK. Plates were incubated at 37° C. for 18-24 h, and growth was assessed visually.

O=NN(O)N(CCO)CC1OC2OC3C(CN(CCO)N(O)N=O)OC(OC4C(CN(CCO)N(O)N=O)OC(OC5C(CN(CCO)N(O)N=O)OC(OC6C(CN(CCO)N(O)N=O)OC(OC7C(CN(CCO)N(O)N=O)OC(OC8C(CN(CCO)N(O)N=O)OC(OC1C(O)C2O)C(O)C8O)C(O)C7O)C(O)C6O)C(O)C5O)C(O)C4O)C(O)C3O (stereo not shown) [BIOC76]
NO content [1]: ~4.7 μmol NO/mg dry powder | bacterial survival over 24 h (P. aeruginosa (PAK)): can recover after 24 h | MBEC of BIOC76 (P. aeruginosa biofilms; PAK (N0049), 3-log reduction in biofilm): 4 mg/mL | effectiveness against P. aeruginosa biofilms (P. aeruginosa biofilms; biofilms grown under aerobic conditions): effective | MIC BIOC76 alone (P. aeruginosa strain PAK): 1000 µg/mL (≈ 539 µM) | MIC BIOC76 combo (P. aeruginosa strain PAK; in combination with Ga(NO3)3): 125 µg/mL | mode of activity alone (conclusion) (P. aeruginosa strains; 21 P. aeruginosa strains): largely bacteriostatic | MBC Rep 1 (P. aeruginosa strains; strain N0047 (AR-BANK #103)): 8000 µg/mL | MIC Rep 1 (P. aeruginosa strains; strain N0047 (AR-BANK #103)): 2000 µg/mL | MBC Rep 1 (P. aeruginosa strains; strain N0048 (ATCC 19143)): 2000 µg/mL | MIC Rep 1 (P. aeruginosa strains; strain N0048 (ATCC 19143)): 500 µg/mL | MBC Rep 1 (P. aeruginosa strains; strain N0049 (PAK)): 4000 µg/mL | MIC Rep 1 (P. aeruginosa strains; strain N0049 (PAK)): 2000 µg/mL | MBC Rep 1 (P. aeruginosa strains; strain N0050 (AR-BANK #0095)): 8000 µg/mL | MIC Rep 1 (P. aeruginosa strains; strain N0050 (AR-BANK #0095)): 2000 µg/mL | MBC Rep 1 (P. aeruginosa strains; strain N0051 (AU32077)): 4000 µg/mL | MIC Rep 1 (P. aeruginosa strains; strain N0051 (AU32077)): 1000 µg/mL | MBC Rep 1 (P. aeruginosa strains; strain N0052 (AU25834)): 2000 µg/mL | MIC Rep 1 (P. aeruginosa strains; strain N0052 (AU25834)): 1000 µg/mL | MBC Rep 1 (P. aeruginosa strains; strain N0053 (AU30524)): 16000 µg/mL | MIC Rep 1 (P. aeruginosa strains; strain N0053 (AU30524)): 4000 µg/mL | MBC Rep 1 (P. aeruginosa strains; strain N0054 (AU26773)): 16000 µg/mL | MIC Rep 1 (P. aeruginosa strains; strain N0054 (AU26773)): 2000 µg/mL | MBC Rep 1 (P. aeruginosa strains; strain N0055 (AU22725)): >8000 µg/mL | MIC Rep 1 (P. aeruginosa strains; strain N0055 (AU22725)): 1000 µg/mL | MBC Rep 1 (P. aeruginosa strains; strain N0056 (AU22505)): 16000 µg/mL | MIC Rep 1 (P. aeruginosa strains; strain N0056 (AU22505)): 8000 µg/mL | MBC Rep 1 (P. aeruginosa strains; strain N0057 (AU35400)): 32000 µg/mL | MIC Rep 1 (P. aeruginosa strains; strain N0057 (AU35400)): 8000 µg/mL | MBC Rep 1 (P. aeruginosa strains; strain N0058 (AU32543)): 8000 µg/mL | MIC Rep 1 (P. aeruginosa strains; strain N0058 (AU32543)): 2000 µg/mL | MBC Rep 1 (P. aeruginosa strains; strain N0059 (AR-BANK #0054)): >16000 µg/mL | MIC Rep 1 (P. aeruginosa strains; strain N0059 (AR-BANK #0054)): 2000 µg/mL | MBC Rep 1 (P. aeruginosa strains; strain N0069 (AR-BANK #0090)): >16000 µg/mL | MIC Rep 1 (P. aeruginosa strains; strain N0069 (AR-BANK #0090)): 2000 µg/mL | MBC Rep 1 (P. aeruginosa strains; strain N0070 (AR-BANK #0092)): >16000 µg/mL | MIC Rep 1 (P. aeruginosa strains; strain N0070 (AR-BANK #0092)): 2000 µg/mL | MBC Rep 1 (P. aeruginosa strains; strain N0071 (AR-BANK #0100)): >16000 µg/mL | MIC Rep 1 (P. aeruginosa strains; strain N0071 (AR-BANK #0100)): 2000 µg/mL | MBC Rep 1 (P. aeruginosa strains; strain N0072 (AR-BANK #0105)): >16000 µg/mL | MIC Rep 1 (P. aeruginosa strains; strain N0072 (AR-BANK #0105)): 2000 µg/mL | MBC Rep 1 (P. aeruginosa strains; strain N0079 (AR-BANK #0108)): >16000 µg/mL | MIC Rep 1 (P. aeruginosa strains; strain N0079 (AR-BANK #0108)): 2000 µg/mL | MBC Rep 1 (P. aeruginosa strains; strain N0080 (AR-BANK #0110)): >16000 µg/mL | MIC Rep 1 (P. aeruginosa strains; strain N0080 (AR-BANK #0110)): 2000 µg/mL | MBC Rep 1 (P. aeruginosa strains; strain N0081 (AR-BANK #0111)): >16000 µg/mL | MIC Rep 1 (P. aeruginosa strains; strain N0081 (AR-BANK #0111)): 2000 µg/mL | MBC Rep 1 (P. aeruginosa strains; strain N0099 (ATCC 29260)): 8000 µg/mL | MIC Rep 1 (P. aeruginosa strains; strain N0099 (ATCC 29260)): 2000 µg/mL
